From patent publication US20180021361A1, “COMBINATION DRUG TREATMENT FOR HEPATITIS C INFECTION” (JANSSEN PHARMACEUTICALS, INC., priority 2016, published 2018)
“Also recorded” adds a separate entry of the source.

What was measured:
[1] = Phase-1 drug-drug interaction study, plasma PK in healthy volunteers
Method: A drug-drug interaction study (DDI) study is a study designed to investigate whether a drug alters the pharmacokinetics of another drug or drugs or their metabolites.
Compound (III) Subjects received 800 mg of Compound (III) once daily from Days 1-3, Days 11-13, and Days 21-23. PK blood samples for determination of Compound (III) and metabolite concentrations were collected in reference to the Day 3, Day 13, and Day 23 doses.
Simeprevir—Subjects received 150 mg of Simeprevir (SMV) once daily from Days 4-23. PK blood samples for determination of SMV concentrations were collected in reference to the Day 10, Day 13, Day 20, and Day 23 doses.
Odalasvir—Subjects received a loading dose of 150 mg on Day 14, and 50 mg of Odalasvir once daily from Days 15-23. PK blood samples for determination of Odalasvir concentrations were collected in reference to the Day 20 and Day 23 doses.
Compound (III)—Subjects received 800 mg of Compound (III) once daily from Days 1-3, Days 11-13 and Days 21-23. PK blood samples for determination of Compound (III) and metabolite concentrations were collected in reference to the Day 3, Day 13, and Day 23 doses.
Simeprevir—Subjects receive 150 mg of SMV once daily from Days 4-23. PK blood samples for determination of SMV concentrations were collected in reference to the Day 20 and Day 23 doses.
Odalasvir—Subjects receive a loading dose of 150 mg on Day 4, and 50 mg of Odalasvir once daily from Days 5-23. PK blood samples for determination of Odalasvir concentrations were collected in reference to the Day 10, Day 13, Day 20, and Day 23 doses.
A primary objective was to evaluate the effect of multiple oral doses of Odalasvir (alone), Simeprevir (alone), and Odalasvir and Simeprevir on the multiple oral dose PK of Compound (III) (and certain metabolites thereof, such as the major metabolites in systemic circulation) in healthy volunteers. Other objectives were to evaluate the safety and tolerability of multiple oral doses of Compound (III) when administered alone and in combination with single and multiple oral doses of Odalasvir and/or Simeprevir in healthy volunteers; to determine the potential effect of Compound of Compound (III) and/or Odalasvir on the steady-state PK of Simeprevir in healthy volunteers; to determine the potential effect of Compound of Compound (III) and/or Simeprevir on the steady state PK of Odalasvir in healthy volunteers.
Various other PK parameters were estimated including: […], t1/2, Tmax, Tlast, CL/F, Vz/F, and λz.
Odalasvir: 150 mg loading dose; 50 mg for the remainder of the study period.

[2] = Phase 2a open-label combination study, pharmacokinetics; format: in vivo, human
Method: A randomized, Phase 2a, open-label study was carried out to evaluate the safety, pharmacokinetics and efficacy of the combination of Compound (III), Odalasvir and Simeprevir in Genotype 1 treatment-naïve subjects with chronic hepatitis C. Other treatment-naïve subjects included Genotype 2, 3, 4, 5 and 6. The aim of the study was to determine the efficacy, pharmacokinetics (PK), and safety of Compound (III)+Odalasvir±SMV in HCV-infected subjects. […] Efficacy, PK and safety evaluations were conducted during and through 24 weeks post dosing. Up to 15 cohorts were enrolled; data was generated from cohorts that have completed dosing.

P-gp = P-gp (Homo sapiens, UniProt P08183); settings: efflux transporter; cited from earlier work
P-gp, sequence (P08183 whole entry): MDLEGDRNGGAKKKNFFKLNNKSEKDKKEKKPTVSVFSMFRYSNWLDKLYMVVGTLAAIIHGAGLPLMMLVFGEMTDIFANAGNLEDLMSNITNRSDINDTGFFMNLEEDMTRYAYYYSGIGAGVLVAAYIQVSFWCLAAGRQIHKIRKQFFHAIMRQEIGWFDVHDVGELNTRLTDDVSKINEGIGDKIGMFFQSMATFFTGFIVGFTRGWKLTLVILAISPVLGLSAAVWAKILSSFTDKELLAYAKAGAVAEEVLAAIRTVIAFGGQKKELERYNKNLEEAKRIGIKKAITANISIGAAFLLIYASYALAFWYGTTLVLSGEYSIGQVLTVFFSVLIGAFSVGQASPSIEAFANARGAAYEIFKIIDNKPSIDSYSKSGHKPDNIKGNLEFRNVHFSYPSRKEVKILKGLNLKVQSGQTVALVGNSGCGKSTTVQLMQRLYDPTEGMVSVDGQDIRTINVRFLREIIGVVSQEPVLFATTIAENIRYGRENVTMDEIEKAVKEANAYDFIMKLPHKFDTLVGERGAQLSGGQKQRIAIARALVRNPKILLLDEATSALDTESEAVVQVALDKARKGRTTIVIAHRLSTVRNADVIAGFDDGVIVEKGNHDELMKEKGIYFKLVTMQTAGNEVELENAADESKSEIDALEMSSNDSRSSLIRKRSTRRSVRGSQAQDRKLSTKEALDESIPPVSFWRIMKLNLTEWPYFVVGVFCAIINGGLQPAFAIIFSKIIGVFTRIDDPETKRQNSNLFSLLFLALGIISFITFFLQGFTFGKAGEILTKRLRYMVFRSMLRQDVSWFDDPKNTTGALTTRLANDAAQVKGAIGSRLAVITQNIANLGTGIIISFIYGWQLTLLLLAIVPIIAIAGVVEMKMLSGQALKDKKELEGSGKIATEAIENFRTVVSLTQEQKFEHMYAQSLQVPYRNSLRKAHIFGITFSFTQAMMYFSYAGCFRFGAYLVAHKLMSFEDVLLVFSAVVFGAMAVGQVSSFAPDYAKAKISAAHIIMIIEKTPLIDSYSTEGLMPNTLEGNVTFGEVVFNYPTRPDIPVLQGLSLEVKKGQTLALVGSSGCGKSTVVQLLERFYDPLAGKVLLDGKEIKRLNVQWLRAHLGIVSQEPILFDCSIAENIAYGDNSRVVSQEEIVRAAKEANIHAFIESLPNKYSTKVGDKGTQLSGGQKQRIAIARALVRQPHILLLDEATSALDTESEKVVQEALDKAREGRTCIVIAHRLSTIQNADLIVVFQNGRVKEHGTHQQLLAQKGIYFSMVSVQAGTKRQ

MRP2 = MRP2 (Homo sapiens, UniProt Q92887); settings: efflux transporter; cited from earlier work
MRP2, sequence (Q92887 whole entry): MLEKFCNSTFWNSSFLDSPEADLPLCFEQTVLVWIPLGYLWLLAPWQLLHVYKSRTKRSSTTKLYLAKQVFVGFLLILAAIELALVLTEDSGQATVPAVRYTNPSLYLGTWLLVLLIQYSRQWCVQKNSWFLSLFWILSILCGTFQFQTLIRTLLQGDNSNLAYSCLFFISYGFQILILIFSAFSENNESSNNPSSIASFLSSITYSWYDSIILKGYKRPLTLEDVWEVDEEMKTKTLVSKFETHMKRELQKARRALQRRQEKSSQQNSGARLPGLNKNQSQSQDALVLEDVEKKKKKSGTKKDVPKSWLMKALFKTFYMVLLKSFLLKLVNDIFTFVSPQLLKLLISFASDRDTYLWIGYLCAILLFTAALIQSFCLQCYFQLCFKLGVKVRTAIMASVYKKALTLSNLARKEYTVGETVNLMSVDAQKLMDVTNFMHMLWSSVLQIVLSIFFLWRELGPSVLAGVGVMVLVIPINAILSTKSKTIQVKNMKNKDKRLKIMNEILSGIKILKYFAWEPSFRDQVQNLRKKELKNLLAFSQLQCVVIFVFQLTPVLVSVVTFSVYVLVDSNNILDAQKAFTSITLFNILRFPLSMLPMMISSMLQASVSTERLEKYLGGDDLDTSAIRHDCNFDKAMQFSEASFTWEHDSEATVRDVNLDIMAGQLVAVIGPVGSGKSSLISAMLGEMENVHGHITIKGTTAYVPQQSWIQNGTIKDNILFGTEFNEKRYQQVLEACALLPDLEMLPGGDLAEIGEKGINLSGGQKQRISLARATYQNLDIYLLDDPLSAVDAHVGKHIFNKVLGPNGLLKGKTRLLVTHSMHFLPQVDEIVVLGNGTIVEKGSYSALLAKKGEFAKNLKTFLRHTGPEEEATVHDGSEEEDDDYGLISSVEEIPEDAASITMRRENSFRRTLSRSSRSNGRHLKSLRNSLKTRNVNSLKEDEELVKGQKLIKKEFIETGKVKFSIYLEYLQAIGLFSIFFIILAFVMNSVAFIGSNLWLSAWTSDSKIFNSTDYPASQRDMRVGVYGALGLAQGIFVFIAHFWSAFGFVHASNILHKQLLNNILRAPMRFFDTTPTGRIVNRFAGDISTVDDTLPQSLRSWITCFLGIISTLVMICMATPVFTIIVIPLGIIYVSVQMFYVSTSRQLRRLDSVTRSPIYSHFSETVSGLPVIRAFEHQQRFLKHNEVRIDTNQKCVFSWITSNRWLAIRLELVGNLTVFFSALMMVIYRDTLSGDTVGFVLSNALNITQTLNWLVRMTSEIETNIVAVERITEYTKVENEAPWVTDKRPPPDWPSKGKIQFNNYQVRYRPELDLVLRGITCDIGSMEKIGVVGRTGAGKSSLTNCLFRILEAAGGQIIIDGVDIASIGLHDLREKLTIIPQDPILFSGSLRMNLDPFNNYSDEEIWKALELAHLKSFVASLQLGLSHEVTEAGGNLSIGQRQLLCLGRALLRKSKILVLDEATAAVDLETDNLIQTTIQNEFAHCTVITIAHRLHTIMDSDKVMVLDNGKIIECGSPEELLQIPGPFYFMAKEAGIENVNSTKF

BSEP = BSEP (Homo sapiens, UniProt O95342); settings: efflux transporter; cited from earlier work
BSEP, sequence (O95342 whole entry): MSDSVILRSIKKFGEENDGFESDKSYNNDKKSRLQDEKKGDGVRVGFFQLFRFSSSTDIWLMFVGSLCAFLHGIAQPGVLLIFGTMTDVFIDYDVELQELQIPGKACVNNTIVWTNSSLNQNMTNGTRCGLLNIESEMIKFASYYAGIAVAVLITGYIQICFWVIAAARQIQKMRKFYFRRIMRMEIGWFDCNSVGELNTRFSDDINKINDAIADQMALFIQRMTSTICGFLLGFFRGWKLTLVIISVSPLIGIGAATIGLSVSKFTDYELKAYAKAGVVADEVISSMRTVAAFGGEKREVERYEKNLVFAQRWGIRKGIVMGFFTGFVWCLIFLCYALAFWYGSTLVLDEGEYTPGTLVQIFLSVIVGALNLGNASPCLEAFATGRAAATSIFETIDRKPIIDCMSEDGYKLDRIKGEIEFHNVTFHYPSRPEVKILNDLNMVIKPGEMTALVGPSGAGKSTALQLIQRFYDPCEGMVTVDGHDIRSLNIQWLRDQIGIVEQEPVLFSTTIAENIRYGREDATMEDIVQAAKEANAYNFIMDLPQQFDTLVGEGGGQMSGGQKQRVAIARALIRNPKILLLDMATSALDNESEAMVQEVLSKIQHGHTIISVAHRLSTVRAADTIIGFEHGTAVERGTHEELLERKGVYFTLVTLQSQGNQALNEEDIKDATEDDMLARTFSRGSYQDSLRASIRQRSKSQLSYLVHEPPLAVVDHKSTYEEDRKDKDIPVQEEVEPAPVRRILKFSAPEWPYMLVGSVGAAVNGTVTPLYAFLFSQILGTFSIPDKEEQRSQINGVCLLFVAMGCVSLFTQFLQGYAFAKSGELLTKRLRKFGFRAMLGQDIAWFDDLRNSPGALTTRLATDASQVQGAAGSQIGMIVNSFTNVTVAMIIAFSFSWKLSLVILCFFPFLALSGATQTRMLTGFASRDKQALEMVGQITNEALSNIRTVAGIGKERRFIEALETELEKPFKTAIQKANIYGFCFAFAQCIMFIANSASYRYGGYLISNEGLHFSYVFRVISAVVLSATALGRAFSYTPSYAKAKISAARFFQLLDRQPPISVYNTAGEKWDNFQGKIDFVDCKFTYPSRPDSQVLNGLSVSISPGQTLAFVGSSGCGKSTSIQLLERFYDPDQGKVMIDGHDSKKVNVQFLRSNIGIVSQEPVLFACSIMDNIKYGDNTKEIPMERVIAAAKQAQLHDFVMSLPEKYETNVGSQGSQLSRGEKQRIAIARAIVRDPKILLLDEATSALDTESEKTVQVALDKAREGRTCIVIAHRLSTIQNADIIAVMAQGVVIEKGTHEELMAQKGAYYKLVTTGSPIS

OATP1B1 = target: T1, OATP1B1 (Homo sapiens, UniProt Q9Y6L6); settings: uptake transporter; cited from earlier work
T1 sequence (Q9Y6L6 1-691): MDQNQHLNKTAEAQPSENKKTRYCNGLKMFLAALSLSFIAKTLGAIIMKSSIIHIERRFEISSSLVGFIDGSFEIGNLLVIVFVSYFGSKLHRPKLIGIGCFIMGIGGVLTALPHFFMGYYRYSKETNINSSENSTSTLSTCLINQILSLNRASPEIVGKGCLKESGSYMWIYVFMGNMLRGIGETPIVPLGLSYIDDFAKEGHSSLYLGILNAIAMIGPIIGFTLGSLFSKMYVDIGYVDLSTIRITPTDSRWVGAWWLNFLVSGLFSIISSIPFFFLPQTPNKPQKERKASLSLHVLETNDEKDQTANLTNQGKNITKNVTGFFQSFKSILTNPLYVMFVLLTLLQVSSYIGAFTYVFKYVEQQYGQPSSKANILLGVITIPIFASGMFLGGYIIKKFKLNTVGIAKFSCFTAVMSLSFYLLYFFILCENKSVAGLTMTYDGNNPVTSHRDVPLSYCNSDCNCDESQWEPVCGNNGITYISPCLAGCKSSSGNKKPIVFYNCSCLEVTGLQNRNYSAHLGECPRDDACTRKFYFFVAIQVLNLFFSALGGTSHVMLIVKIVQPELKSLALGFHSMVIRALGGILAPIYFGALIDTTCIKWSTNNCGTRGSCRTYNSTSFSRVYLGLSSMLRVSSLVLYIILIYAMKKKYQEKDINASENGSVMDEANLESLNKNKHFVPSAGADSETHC

[3] = prior drug-drug interaction study, Digoxin a pgp-substrate; cited from earlier work
[4] = prior drug-drug interaction study, Rosuvastatin substrate of OATPs & BCRP; cited from earlier work

exposure increase caused by Odalasvir ([1]; DDI study results) | exposure increase caused by SMV ([1]; DDI study results) | change of exposure on increasing Compound (III) dose from 400 to 800 mg ([2]; HCV GT 1 patients) | exposure increase, effect of the three Compounds ([1]; DDI study results) | increase of exposure with the combination of the three drugs ([1]; human in vivo study) | observed exposure in Cohort 1 / group (i) versus anticipated ([2]; Compound (III) 400 mg, ODV 50 mg QD, SMV 100 mg QD) | decrease of exposure on reducing Simeprevir dosing from 100 mg to 75 mg QD ([2]; in vivo) | SMILES | effect of Compound (III) on exposure / bioavailability ([1]; human subjects) | in vitro inhibition of P-gp (P-gp) | in vitro inhibition of MRP2 (MRP2) | in vitro inhibition of BSEP (BSEP) | in vitro inhibition of OATP1B1 (OATP1B1) | increase in exposure of Digoxin [3] | increase in Rosuvastatin exposure [4]
2.6 × | 1.6 × | – | – | – | – | – | C[C@H](NP(=O)(O)OC[C@@]1(F)O[C@@H](n2ccc(=O)[nH]c2=O)[C@](C)(O)[C@@H]1O)C(=O)O [Compound A-3] | – | – | – | – | – | – | –
1.5 × | no apparent effect | less than proportionally | – | – | – | – | C[C@]1(O)[C@H](n2ccc(=O)[nH]c2=O)O[C@](F)(CO)[C@H]1O [Compound A-1] | – | – | – | – | – | – | –
1.6 × | – | – | 1.6 × | 1.6 times | higher than anticipated | less than proportionally | COc1ccc2c(O[C@@H]3C[C@H]4C(=O)N[C@]5(C(=O)NS(=O)(=O)C6CC6)C[C@H]5/C=C\CCCCN(C)C(=O)[C@@H]4C3)cc(-c3nc(C(C)C)cs3)nc2c1C [SMV, Simeprevir, reference compound] | no apparent effect; also recorded: does not alter | strong/moderate | strong/moderate | strong/moderate | strong in vitro inhibition | 35% | 3 fold
